ChEMBL document CHEMBL5236615, “Discovery of Novel N-Heterocyclic-Fused Deoxypodophyllotoxin Analogues as Tubulin Polymerization Inhibitors Targeting the Colchicine-Binding Site for Cancer Treatment” (J Med Chem, 2022)
Converted amounts (≈) assume the structure as drawn. The source made the active and inactive calls. No cut-off for these calls is given here.

Key:
MCF7 [1] = assay: Induction of cell cycle arrest in human MCF7 cells assessed as mitosis by measuring accumulation of histone H3 ser10 phosphorylation incubated for 24 hrs by Western blotting analysis; format: functional, cell-based; details: dose 5-25 nM
MCF7 [2] = assay: cells; details: Homo sapiens, MCF7, 72 h
Description: Antiproliferative activity against human MCF7 cells measured after 72 hrs by MTT assay

A549 = assay: Antimigratory activity against human A549 cells assessed as inhibition of cell migration measured after 24 hrs by crystal violet staining based transwell migration assay; format: functional; details: dose 1.25-5 nM
MCF7 [3] = assay: Induction of cell cycle arrest in human MCF7 cells assessed as mitosis by measuring accumulation of histone H3 ser10 phosphorylation incubated for 24 hrs by immunofluorescence assay; format: functional, cell-based; details: dose 5-25 nM
[4] = biological target: ATP-dependent translocase ABCB1 (Homo sapiens, UniProt P08183); assay: Substrate activity at P-glycoprotein in paclitaxel-resistant human MCF/TxR cells assessed as intracellular Rhodamine-123 content at 10 uM incubated for 12 hrs by confocal microscopy; format: cell-based; details: mcf7/txr
Sequence of ATP-dependent translocase ABCB1 (P08183 whole entry): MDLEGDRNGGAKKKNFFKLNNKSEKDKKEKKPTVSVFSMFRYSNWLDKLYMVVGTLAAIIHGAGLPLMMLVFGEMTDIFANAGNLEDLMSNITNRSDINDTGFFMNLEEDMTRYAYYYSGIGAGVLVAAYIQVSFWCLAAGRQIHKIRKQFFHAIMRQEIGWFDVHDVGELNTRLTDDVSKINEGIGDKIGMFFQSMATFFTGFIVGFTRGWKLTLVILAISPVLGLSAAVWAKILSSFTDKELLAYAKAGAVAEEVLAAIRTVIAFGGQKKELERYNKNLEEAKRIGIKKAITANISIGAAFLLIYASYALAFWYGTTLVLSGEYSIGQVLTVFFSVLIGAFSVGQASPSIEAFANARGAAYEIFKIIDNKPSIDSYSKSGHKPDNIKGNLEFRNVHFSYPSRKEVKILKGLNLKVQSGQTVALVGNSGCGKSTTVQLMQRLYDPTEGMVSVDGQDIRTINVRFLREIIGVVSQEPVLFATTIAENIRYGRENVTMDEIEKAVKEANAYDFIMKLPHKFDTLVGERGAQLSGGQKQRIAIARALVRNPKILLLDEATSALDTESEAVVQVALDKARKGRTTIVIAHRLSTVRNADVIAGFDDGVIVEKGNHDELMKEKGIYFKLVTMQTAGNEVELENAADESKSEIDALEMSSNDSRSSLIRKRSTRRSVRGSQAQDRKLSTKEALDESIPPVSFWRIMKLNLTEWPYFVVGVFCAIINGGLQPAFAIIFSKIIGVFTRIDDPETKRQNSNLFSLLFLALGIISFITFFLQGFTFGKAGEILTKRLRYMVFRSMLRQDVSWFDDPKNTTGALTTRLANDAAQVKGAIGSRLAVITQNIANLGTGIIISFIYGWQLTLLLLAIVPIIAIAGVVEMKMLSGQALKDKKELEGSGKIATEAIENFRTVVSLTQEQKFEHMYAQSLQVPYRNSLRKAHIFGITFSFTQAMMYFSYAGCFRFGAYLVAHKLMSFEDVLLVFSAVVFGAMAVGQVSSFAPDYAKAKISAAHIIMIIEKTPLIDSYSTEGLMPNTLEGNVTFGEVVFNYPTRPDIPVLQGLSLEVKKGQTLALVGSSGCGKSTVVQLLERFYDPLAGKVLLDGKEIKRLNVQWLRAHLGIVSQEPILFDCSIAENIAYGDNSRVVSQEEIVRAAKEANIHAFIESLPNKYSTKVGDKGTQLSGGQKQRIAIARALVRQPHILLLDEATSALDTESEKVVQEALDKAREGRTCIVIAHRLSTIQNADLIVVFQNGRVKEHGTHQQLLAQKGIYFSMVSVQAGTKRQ

[5] = Acute toxicity in ICR mouse; details: in vivo
MCF7 [6] = assay: Induction of cell cycle arrest in human MCF7 cells assessed as upregulation of Bcl2 phosphorylation at […] at 5 to 20 nM measured after 24 hrs by Western blot analysis; format: functional, cell-based; details: dose 5-20 nM
[7] = Toxicity in Balb/c mouse xenografted with human MCF7 cells assessed as body weight loss at 5 to 20 mg/kg, ip administered for every 2 days for 21 days; format: organism-based; details: in vivo, 48 h, dose 5-20 mg/kg, time 2 day
MCF7 [8] = assay: Antitumor activity against human MCF7 cells xenografted in Balb/c mouse assessed as tumor growth inhibition at 20 mg/kg, ip administered for every 2 days for 21 days; format: functional; details: MCF7, 504 h, time 21 day, read-out: TGI
MCF7 [9] = assay: Induction of ROS generation in human MCF7 cells assessed as increase in intracellular ROS level measured after 12 hrs by DCFH-DA staining based assay; format: functional, cell-based; details: dose 5-20 nM
HCT-116 = assay: Antiproliferative activity against human HCT-116 cells measured after 72 hrs by MTT assay; format: functional, cell-based; details: HCT-116, 72 h
MCF7 [10] = assay: Induction of apoptosis in human MCF7 cells assessed as upregulation of p-Bim L protein expression at 5 to 20 nM measured after 24 hrs by Western blot analysis; format: functional, cell-based; details: dose 5-20 nM
[11] = Toxicity in Balb/c mouse xenografted with human MCF7 cells assessed as pathological changes in lung at 5 to 20 mg/kg, ip administered for every 2 days for 21 days by hematoxylin and eosin staining based analysis; format: organism-based; details: in vivo, 504 h, dose 5-20 mg/kg, time 21 day
A549/TxR = assay: Induction of apoptosis in paclitaxel-resistant human A549/TxR cells incubated for 24 hrs by annexinV/PI assay; format: functional, cell-based; details: dose 5-20 nM
[12] = Toxicity in Balb/c mouse xenografted with human MCF7 cells assessed as pathological changes in liver at 5 to 20 mg/kg, ip administered for every 2 days for 21 days by hematoxylin and eosin staining based analysis; format: organism-based; details: in vivo, 504 h, dose 5-20 mg/kg, time 21 day
MCF7 [13] = assay: Induction of apoptosis in human MCF7 cells assessed as upregulation of cleaved Caspase 3 at 5 to 20 nM measured after 24 hrs by Western blot analysis; format: functional, cell-based; details: dose 5-20 nM
MCF7 [14] = assay: Induction of apoptosis in human MCF7 cells incubated for 24 hrs by annexinV/PI assay; format: functional, cell-based; details: dose 5-25 nM
HT-29 = assay: Antiproliferative activity against human HT-29 cells measured after 72 hrs by MTT assay; format: functional, cell-based; details: HT-29, 72 h
MCF7 [15] = assay: Induction of cell cycle arrest in human MCF7 cells assessed as accumulation of cells at G2/M phase at 20 nM measured after 24 hrs by flow cytometry relative to control; format: functional
[16] = Toxicity in Balb/c mouse xenografted with human MCF7 cells assessed as pathological changes in kidney at 5 to 20 mg/kg, ip administered for every 2 days for 21 days by hematoxylin and eosin staining based analysis; format: organism-based; details: in vivo, 504 h, dose 5-20 mg/kg, time 21 day
[17] = Aqueous solubility in pH 7.4 PBS buffer by HPLC-UV analysis; format: physicochemical
[18] = Antiproliferative activity against paclitaxel-resistant human MCF7/TxR cells measured after 72 hrs by MTT assay; format: functional, cell-based
[19] = Antiproliferative activity against paclitaxel-resistant human A549/TxR cells measured after 72 hrs by MTT assay; format: functional, cell-based
MCF7 [20] = assay: Induction of cell cycle arrest in human MCF7 cells assessed as arrest in G2/M phase by measuring accumulation of cyclin B1 at 5 to 25 nM incubated for 24 hrs by Western blotting analysis; format: functional, cell-based; details: dose 5-25 nM
MCF7 [21] = assay: Induction of cell cycle arrest in human MCF7 cells assessed as accumulation of cells at G2/M phase at 5 nM measured after 24 hrs by flow cytometry relative to control; format: functional
Tubulin = Tubulin (Sus scrofa, UniProt P02554+P02550); assay: Inhibition of porcine brain tubulin assessed as changes in the fluorescence intensity measured for 60 mins by cell free tubulin polymerization assay
MCF7 [22] = assay: Induction of cell cycle arrest in human MCF7 cells assessed as cdc25c activation at 5 to 25 nM incubated for 24 hrs by Western blotting analysis; format: functional, cell-based; details: dose 5-25 nM
Tubulin (Homo sapiens) = Tubulin (Homo sapiens) (UniProt P68371+Q9H4B7+P0DPH7+P68366+Q13509+Q71U36+P04350+Q3ZCM7+P07437+P68363+Q9BQE3+Q6PEY2+Q13885+Q9BVA1+Q9BUF5); assay: Inhibition of [3H]colchicine binding to tubulin (unknown origin) at 5 uM by competition scintillation proximity assay relative to control; format: protein-complex assay
MCF7 [23] = assay: Induction of cell cycle arrest in human MCF7 cells assessed as arrest in G2/M phase by measuring accumulation of p21 at 5 to 25 nM incubated for 24 hrs by Western blotting analysis; format: functional, cell-based; details: dose 5-25 nM
MCF7 [24] = assay: Induction of apoptosis in human MCF7 cells assessed as upregulation of BaX protein expression at 5 to 20 nM measured after 24 hrs by Western blot analysis; format: functional, cell-based; details: dose 5-20 nM
MCF7 [25] = assay: Induction of mitochondria transmembrane potential loss in human MCF7 cells measured after 12 hrs by JC1 dye based assay; format: functional; details: dose 5-20 nM
MCF7 [26] = assay: Induction of cell cycle arrest in human MCF7 cells assessed as accumulation of cells at G2/M phase at 10 nM measured after 24 hrs by flow cytometry relative to control; format: functional
MCF7 [27] = assay: Antitumor activity against human MCF7 cells xenografted in Balb/c mouse assessed as tumor growth inhibition at 10 mg/kg, ip administered for every 2 days for 21 days; format: functional; details: MCF7, 504 h, time 21 day, read-out: TGI
MCF7 [28] = assay: Antitumor activity against human MCF7 cells xenografted in Balb/c mouse assessed as decrease in CD31-positive tumor cells in tumor at 20 mg/kg, ip administered for every 2 days for 21 days; format: functional, organism-based; details: time 2.0 day
MCF7 [29] = assay: Induction of cell cycle arrest in human MCF7 cells assessed as arrest in G2/M phase by measuring accumulation of CDK7 at 5 to 25 nM incubated for 24 hrs by Western blotting analysis; format: functional, cell-based; details: dose 5-25 nM
HUVEC = assay: Inhibition of angiogenesis in HUVEC cells assessed as broken tubular network at 5 nM after 6 hrs by phase contrast microscopy; format: functional, cell-based; details: Homo sapiens
[30] = Toxicity in Balb/c mouse xenografted with human MCF7 cells assessed as pathological changes in heart at 5 to 20 mg/kg, ip administered for every 2 days for 21 days by hematoxylin and eosin staining based analysis; format: organism-based; details: in vivo, 504 h, dose 5-20 mg/kg, time 21 day

Q: For `COc1c(Cl)cc([C@@H]2c3cc4c(cc3C[C@H]3C(=O)NC(=O)N23)OCCO4)cc1Cl`, which Activity (MCF7 [1]) is on record?
A: Dose-Dependent Effect

Q: What about the IC50 (MCF7 [2]) of the same compound?
A: 9.2 nM

Q: What about the Activity (A549) of the same compound?
A: Dose-Dependent Effect

Q: And the Activity (MCF7 [3])?
A: Dose-Dependent Effect

Q: And the Activity [4]?
A: Not Active

Q: And the LD50 [5]?
A: 211 mg/kg

Q: And the Activity (MCF7 [6])?
A: Active

Q: What about the Activity [7] of the same compound?
A: Non-Toxic

Q: And the inhibition in vivo at 20 mg/kg (MCF7 [8])?
A: 85.1%

Q: What about the Activity (MCF7 [9]) of the same compound?
A: Dose-Dependent Effect

Q: And the IC50 (HCT-116)?
A: 8.7 nM

Q: What about the Activity (MCF7 [10]) of the same compound?
A: Active

Q: And the Activity [11]?
A: Non-Toxic

Q: And the inhibition (A549/TxR)?
A: Dose-Dependent Effect

Q: What about the Activity [12] of the same compound?
A: Non-Toxic

Q: And the Activity (MCF7 [13])?
A: Active

Q: And the Activity (MCF7 [14])?
A: Dose-Dependent Effect

Q: And the IC50 (HT-29)?
A: 8.3 nM

Q: What about the Activity (MCF7 [15]) of the same compound?
A: 16%

Q: What about the Activity [16] of the same compound?
A: Non-Toxic

Q: And the solubility [17]?
A: 2.85 µg/mL (≈ 6.55 µM)

Q: What about the IC50 [18] of the same compound?
A: 7.8 nM

Q: What about the IC50 [19] of the same compound?
A: 5.2 nM

Q: And the Activity (MCF7 [20])?
A: Active

Q: What about the Activity (MCF7 [21]) of the same compound?
A: 16%

Q: And the IC50 (Tubulin)?
A: 2520 nM

Q: What about the Activity (MCF7 [22]) of the same compound?
A: Active

Q: What about the inhibition (Tubulin (Homo sapiens)) of the same compound?
A: 88.7%

Q: And the Activity (MCF7 [23])?
A: Active

Q: What about the Activity (MCF7 [24]) of the same compound?
A: Active

Q: And the Activity (MCF7 [25])?
A: Dose-Dependent Effect

Q: And the Activity (MCF7 [26])?
A: 16%

Q: What about the inhibition in vivo at 10 mg/kg (MCF7 [27]) of the same compound?
A: 85.1%

Q: What about the Activity (MCF7 [28]) of the same compound?
A: Active

Q: And the Activity (MCF7 [29])?
A: Active

Q: And the Activity (HUVEC)?
A: Dose-Dependent Effect

Q: And the Activity [30]?
A: Non-Toxic

Q: With `COc1c(Br)cc([C@@H]2c3cc4c(cc3C[C@H]3C(=O)NC(=O)N23)OCCO4)cc1Br` as the compound, how does the Activity (MCF7 [1]) read?
A: Dose-Dependent Effect

Q: What about the IC50 (MCF7 [2]) of the same compound?
A: 3.5 nM

Q: What about the Activity (A549) of the same compound?
A: Dose-Dependent Effect

Q: What about the Activity (MCF7 [3]) of the same compound?
A: Dose-Dependent Effect

Q: What about the Activity [4] of the same compound?
A: Not Active

Q: And the LD50 [5]?
A: 86.2 mg/kg

Q: And the Activity (MCF7 [6])?
A: Active

Q: What about the Activity [7] of the same compound?
A: Non-Toxic

Q: What about the inhibition in vivo at 20 mg/kg (MCF7 [8]) of the same compound?
A: 78.9%

Q: And the Activity (MCF7 [9])?
A: Dose-Dependent Effect

Q: What about the IC50 (HCT-116) of the same compound?
A: 5.9 nM

Q: And the Activity (MCF7 [10])?
A: Active

Q: What about the Activity [11] of the same compound?
A: Non-Toxic

Q: And the inhibition (A549/TxR)?
A: Dose-Dependent Effect

Q: And the Activity [12]?
A: Non-Toxic

Q: And the Activity (MCF7 [13])?
A: Active

Q: What about the Activity (MCF7 [14]) of the same compound?
A: Dose-Dependent Effect

Q: What about the IC50 (HT-29) of the same compound?
A: 4.4 nM

Q: What about the Activity (MCF7 [15]) of the same compound?
A: 16%

Q: And the Activity [16]?
A: Non-Toxic

Q: And the solubility [17]?
A: < 0.5 µg/mL

Q: What about the IC50 [18] of the same compound?
A: 5.2 nM

Q: What about the IC50 [19] of the same compound?
A: 7.9 nM

Q: And the Activity (MCF7 [20])?
A: Active

Q: And the Activity (MCF7 [21])?
A: 16%

Q: And the IC50 (Tubulin)?
A: 2310 nM

Q: What about the Activity (MCF7 [22]) of the same compound?
A: Active

Q: And the inhibition (Tubulin (Homo sapiens))?
A: 84.6%

Q: And the Activity (MCF7 [23])?
A: Active

Q: And the Activity (MCF7 [24])?
A: Active

Q: And the Activity (MCF7 [25])?
A: Dose-Dependent Effect

Q: What about the Activity (MCF7 [26]) of the same compound?
A: 16%

Q: And the inhibition in vivo at 10 mg/kg (MCF7 [27])?
A: 73.2%

Q: What about the Activity (MCF7 [28]) of the same compound?
A: Active

Q: What about the Activity (MCF7 [29]) of the same compound?
A: Active

Q: And the Activity (HUVEC)?
A: Dose-Dependent Effect

Q: And the Activity [30]?
A: Non-Toxic
